According to ChEMBL document CHEMBL1157712, “Hit to lead account of the discovery of bisbenzamide and related ureidobenzamide inhibitors of Rho kinase” (J Med Chem, 2010):
In brackets after ≈: the same amount, converted by molar mass.

Columns and labels:
[1] = molecular target: T1, Rho-associated protein kinase 2 (Homo sapiens, UniProt O75116); experiment: Inhibition of human ROCK2 by IMAP assay
[2] = molecular target: Serine/threonine-protein kinase N2 (Homo sapiens, UniProt Q16513)
Cytochrome P450 2D6 [3] = molecular target: T2, Cytochrome P450 2D6 (Homo sapiens, UniProt P10635); experiment: Inhibition of human CYP2D6 by fluorescence assay; format: ADME
Cytochrome P450 2C9 [4] = molecular target: T3, Cytochrome P450 2C9 (Homo sapiens, UniProt P11712); experiment: Inhibition of human CYP2C9 by fluorescence assay; format: ADME
Cytochrome P450 2C19 = Cytochrome P450 2C19 (Homo sapiens, UniProt P33261); experiment: Inhibition of human CYP2C19 by fluorescence assay; format: ADME
[5] = molecular target: T1, Rho-associated protein kinase 2
Description: Inhibition of human ROCK2 by homogenous luciferase assay

[6] = molecular target: T4, Protein kinase C epsilon type (Homo sapiens, UniProt Q02156); experiment: Inhibition of PKCepsilon
T4 sequence (Q02156 whole entry): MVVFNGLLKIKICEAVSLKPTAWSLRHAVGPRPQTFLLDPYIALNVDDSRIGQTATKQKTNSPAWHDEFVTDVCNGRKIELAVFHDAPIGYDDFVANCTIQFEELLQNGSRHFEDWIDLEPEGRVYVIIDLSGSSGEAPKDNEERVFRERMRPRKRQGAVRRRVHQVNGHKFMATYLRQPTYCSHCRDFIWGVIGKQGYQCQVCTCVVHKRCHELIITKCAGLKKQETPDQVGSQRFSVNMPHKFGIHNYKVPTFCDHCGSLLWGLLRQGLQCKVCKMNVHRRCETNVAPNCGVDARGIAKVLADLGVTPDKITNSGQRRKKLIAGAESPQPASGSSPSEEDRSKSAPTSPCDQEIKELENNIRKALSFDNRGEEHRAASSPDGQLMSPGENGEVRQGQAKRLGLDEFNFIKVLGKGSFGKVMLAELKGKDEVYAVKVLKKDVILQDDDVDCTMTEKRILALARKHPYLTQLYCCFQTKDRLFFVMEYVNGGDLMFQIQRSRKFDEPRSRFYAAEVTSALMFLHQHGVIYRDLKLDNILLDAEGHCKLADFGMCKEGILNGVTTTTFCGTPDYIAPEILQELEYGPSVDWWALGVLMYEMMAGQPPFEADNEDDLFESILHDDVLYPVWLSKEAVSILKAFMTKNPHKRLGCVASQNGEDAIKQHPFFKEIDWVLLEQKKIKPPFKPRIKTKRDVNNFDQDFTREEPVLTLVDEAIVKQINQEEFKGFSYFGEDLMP

[7] = Membrane permeability by PAMPA assay; format: ADME; conditions: read-out: permeability
Caco-2 = experiment: (§1) Permeability from apical to basolateral side in human Caco-2 cells; format: ADME, cell-based; conditions: caco-2, BLD = below limit of detection
Cytochrome P450 3A4 [8] = molecular target: T5, Cytochrome P450 3A4 (Homo sapiens, UniProt P08684); experiment: Inhibition of human CYP3A4 using BFC substrate by fluorescence assay; format: ADME
Cytochrome P450 1A2 [9] = molecular target: T6, Cytochrome P450 1A2 (Homo sapiens, UniProt P05177); experiment: Inhibition of human CYP1A2 by fluorescence assay; format: ADME
T6 sequence (P05177 whole entry): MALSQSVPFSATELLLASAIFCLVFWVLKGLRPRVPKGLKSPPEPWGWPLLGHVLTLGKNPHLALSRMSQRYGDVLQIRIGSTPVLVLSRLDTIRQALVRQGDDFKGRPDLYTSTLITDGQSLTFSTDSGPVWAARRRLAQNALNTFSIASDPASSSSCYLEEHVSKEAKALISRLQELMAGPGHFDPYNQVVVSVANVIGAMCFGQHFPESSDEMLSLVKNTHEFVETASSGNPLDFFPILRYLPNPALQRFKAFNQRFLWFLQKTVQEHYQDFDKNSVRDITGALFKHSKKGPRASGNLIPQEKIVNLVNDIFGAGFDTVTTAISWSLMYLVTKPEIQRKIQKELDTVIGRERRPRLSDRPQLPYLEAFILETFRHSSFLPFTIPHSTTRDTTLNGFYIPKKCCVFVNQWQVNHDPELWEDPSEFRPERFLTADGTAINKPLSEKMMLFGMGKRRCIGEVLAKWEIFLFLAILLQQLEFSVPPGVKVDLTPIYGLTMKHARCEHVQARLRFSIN

[10] = Bioavailability in rat; format: ADME, organism-based; conditions: in vivo
Cytochrome P450 3A4 [11] = molecular target: T5, Cytochrome P450 3A4; experiment: Inhibition of human CYP3A4 using BQ substrate by fluorescence assay; format: ADME
[12] = Permeability from basolateral to apical side in human Caco-2 cells; format: ADME, cell-based; conditions: read-out: permeability
Rattus norvegicus = organism: Rattus norvegicus; experiment: Induction of relaxation activity of phenylephrine-induced Sprague-Dawley rat aortic ring contraction; format: functional; conditions: Aorta
[13] = Metabolic stability in human liver microsomes assessed as half life; format: ADME, Microsome
[14] = Solubility at pH 7.4; format: physicochemical; conditions: buffer
[15] = molecular target: Serine/threonine-protein kinase MRCK beta (Homo sapiens) (UniProt Q9Y5S2); experiment: Inhibition of CDC42BPB
Cytochrome P450 2D6 [16] = molecular target: T2, Cytochrome P450 2D6; experiment: Inhibition of human CYP2D6 by LCMS/MS assay; format: ADME
Cytochrome P450 3A4 [17] = molecular target: T5, Cytochrome P450 3A4; experiment: Inhibition of human CYP3A4 by LCMS/MS assay; format: ADME
Cytochrome P450 1A2 [18] = molecular target: T6, Cytochrome P450 1A2; experiment: Inhibition of human CYP1A2 by LCMS/MS assay; format: ADME
[19] = as §1; format: ADME, cell-based; conditions: Caco-2, read-out: permeability
Cytochrome P450 2C9 [20] = molecular target: T3, Cytochrome P450 2C9; experiment: Inhibition of human CYP2C9 by LCMS/MS assay; format: ADME
in vitro = conditions: human, Caco-2
Description: Ratio of permeability from basolateral to apical side over apical to basolateral side in human Caco-2 cells

[21] = Solubility at pH 4.5; format: physicochemical; conditions: buffer
[22] = molecular target: Rho-associated protein kinase 1 (Homo sapiens, UniProt Q13464); experiment: Inhibition of human ROCK1 by homogenous luciferase assay

T5 sequence (P08684 whole entry): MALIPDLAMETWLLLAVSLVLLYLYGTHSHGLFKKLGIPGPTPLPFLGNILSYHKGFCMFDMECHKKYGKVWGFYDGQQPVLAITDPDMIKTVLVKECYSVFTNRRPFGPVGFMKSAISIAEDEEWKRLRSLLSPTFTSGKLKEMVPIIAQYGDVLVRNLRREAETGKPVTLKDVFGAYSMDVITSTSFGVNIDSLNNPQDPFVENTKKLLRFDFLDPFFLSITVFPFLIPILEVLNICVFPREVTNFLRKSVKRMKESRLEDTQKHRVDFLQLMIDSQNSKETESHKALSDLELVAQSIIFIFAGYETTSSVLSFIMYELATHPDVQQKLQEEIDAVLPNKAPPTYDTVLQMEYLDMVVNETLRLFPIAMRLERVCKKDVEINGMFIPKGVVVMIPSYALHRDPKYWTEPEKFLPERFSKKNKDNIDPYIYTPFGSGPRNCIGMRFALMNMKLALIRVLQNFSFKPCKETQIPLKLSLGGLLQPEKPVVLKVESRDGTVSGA
T2 sequence (P10635 whole entry): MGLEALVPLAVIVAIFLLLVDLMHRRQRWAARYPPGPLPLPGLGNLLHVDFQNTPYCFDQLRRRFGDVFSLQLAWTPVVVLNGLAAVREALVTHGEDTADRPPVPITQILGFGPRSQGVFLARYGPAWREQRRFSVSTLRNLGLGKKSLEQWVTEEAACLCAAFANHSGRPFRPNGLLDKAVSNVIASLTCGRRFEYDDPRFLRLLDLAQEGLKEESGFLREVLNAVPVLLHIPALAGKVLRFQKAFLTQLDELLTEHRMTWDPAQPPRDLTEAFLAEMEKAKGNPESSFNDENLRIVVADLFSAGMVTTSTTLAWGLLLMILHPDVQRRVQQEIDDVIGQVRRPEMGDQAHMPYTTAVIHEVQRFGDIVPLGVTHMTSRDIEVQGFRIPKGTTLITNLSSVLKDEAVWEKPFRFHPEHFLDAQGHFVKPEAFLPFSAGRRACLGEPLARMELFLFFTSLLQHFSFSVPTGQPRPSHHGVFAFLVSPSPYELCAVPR
T3 sequence (P11712 whole entry): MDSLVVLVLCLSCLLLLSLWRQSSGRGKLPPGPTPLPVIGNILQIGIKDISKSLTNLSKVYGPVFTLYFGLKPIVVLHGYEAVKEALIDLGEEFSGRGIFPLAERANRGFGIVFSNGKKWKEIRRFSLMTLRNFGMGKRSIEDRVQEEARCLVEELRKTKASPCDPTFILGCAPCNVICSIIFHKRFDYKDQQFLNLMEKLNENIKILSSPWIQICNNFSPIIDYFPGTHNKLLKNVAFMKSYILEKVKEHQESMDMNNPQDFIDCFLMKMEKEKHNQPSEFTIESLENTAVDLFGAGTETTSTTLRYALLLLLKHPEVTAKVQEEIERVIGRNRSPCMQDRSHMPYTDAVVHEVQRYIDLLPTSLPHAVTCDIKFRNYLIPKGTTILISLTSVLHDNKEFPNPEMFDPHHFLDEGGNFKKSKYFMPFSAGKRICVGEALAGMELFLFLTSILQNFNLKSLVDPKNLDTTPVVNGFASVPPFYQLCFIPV
T1 sequence (O75116 whole entry): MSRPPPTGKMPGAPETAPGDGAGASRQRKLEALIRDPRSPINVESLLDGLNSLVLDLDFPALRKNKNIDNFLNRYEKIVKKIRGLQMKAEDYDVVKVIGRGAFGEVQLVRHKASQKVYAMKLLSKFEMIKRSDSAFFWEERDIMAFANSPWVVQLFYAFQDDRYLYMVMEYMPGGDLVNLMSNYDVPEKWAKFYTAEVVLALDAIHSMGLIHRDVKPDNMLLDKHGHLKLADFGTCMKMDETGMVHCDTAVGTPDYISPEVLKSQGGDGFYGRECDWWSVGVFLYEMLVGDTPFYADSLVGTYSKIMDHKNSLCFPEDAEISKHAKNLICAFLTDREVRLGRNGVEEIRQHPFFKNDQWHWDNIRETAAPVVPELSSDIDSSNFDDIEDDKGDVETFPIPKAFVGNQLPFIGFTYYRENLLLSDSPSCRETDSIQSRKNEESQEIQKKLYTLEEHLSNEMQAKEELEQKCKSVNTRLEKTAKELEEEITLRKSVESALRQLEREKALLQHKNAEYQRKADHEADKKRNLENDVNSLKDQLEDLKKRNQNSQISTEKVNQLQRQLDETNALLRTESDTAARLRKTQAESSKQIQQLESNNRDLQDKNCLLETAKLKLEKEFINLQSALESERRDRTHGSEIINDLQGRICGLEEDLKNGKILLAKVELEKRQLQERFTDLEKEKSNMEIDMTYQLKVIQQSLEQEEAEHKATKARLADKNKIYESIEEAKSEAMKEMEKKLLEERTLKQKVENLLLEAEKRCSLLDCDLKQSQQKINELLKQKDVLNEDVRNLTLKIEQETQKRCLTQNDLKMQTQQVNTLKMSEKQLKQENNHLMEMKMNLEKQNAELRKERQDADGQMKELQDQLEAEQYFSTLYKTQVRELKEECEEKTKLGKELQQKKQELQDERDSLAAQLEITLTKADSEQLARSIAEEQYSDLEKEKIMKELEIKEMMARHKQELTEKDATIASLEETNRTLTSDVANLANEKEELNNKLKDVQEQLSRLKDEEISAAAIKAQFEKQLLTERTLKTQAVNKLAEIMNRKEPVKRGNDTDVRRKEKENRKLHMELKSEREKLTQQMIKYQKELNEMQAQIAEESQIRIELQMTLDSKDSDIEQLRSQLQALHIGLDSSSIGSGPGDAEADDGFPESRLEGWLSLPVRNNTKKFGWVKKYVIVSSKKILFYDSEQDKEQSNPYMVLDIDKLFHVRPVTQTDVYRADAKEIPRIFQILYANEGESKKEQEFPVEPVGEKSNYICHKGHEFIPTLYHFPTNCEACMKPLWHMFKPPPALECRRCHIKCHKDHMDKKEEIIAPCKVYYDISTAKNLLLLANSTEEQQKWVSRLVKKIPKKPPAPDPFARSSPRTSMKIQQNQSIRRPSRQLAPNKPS
Sequence of Serine/threonine-protein kinase N2 (Q16513 whole entry): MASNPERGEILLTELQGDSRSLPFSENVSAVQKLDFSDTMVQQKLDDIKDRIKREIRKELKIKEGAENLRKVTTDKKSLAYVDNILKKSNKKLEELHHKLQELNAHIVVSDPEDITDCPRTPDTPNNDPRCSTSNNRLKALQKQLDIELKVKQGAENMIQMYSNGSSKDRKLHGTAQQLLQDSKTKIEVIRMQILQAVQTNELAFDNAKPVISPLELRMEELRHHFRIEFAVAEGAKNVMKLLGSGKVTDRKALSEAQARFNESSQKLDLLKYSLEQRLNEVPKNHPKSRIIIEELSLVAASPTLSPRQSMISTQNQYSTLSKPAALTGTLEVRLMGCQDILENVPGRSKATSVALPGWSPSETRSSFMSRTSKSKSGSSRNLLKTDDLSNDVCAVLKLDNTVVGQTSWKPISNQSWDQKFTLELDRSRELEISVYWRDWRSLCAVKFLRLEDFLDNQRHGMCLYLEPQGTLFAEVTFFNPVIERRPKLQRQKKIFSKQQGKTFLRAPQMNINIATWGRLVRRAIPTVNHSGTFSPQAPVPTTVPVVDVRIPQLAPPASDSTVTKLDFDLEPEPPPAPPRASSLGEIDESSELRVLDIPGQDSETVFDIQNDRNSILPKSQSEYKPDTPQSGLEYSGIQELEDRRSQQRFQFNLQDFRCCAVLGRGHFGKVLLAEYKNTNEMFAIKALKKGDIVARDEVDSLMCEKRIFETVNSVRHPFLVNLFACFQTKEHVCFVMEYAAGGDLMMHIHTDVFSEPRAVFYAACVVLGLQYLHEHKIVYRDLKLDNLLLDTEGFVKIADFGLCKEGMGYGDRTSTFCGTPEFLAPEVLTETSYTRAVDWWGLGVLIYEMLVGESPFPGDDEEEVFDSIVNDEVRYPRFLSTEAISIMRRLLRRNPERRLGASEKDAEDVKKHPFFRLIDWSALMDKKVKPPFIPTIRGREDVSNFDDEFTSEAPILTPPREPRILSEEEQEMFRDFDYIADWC
Sequence of Cytochrome P450 2C19 (P33261 whole entry): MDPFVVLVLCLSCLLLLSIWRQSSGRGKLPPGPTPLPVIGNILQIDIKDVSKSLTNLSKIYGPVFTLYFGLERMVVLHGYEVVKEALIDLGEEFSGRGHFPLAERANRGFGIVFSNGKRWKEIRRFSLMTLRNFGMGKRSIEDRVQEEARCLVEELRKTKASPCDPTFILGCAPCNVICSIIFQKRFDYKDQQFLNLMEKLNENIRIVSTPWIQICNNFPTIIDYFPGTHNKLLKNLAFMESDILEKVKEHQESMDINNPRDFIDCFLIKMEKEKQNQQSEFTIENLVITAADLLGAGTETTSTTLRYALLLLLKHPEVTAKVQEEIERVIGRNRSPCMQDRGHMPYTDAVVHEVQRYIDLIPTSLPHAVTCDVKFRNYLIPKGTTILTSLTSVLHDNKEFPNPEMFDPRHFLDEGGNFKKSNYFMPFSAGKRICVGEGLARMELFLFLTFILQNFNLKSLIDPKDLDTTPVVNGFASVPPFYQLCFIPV

Row | SMILES | IC50 [2] [µM] | IC50 (Cytochrome P450 2D6 [3]) [µM] | IC50 (Cytochrome P450 2C9 [4]) [µM] | IC50 (Cytochrome P450 2C19) [µM] | IC50 [5] [µM] | IC50 [6] [µM] | Papp [7] [nm/s] | IC50 (Cytochrome P450 3A4 [8]) [µM] | IC50 (Cytochrome P450 1A2 [9]) [µM] | IC50 (Cytochrome P450 3A4 [11]) [µM] | Papp B→A [12] [nm/s] | IC50 (Rattus norvegicus) [µM] | half-life [13] [min] | solubility [14] [mg/mL] | IC50 [15] [µM] | Papp A→B [19] [nm/s] | further results
1 | COc1ccc(C(=O)NCc2cccc(C(=O)Nc3ccc(CN(C)C)cc3)c2)cc1OC | > 5 | > 30 | > 30 | > 30 | 0.069 | > 5 | 100 | 8.5 | > 30 | > 30 | 146 | 6 | 66 | > 0.1 | > 5 |  | IC50 [1]: 0.23 µM; permeability (Caco-2): BLD; bioavailability [10]: 1.8%
2 | COc1ccc(C(=O)NCc2cccc(C(=O)Nc3ccc(CN(C)C)cc3)c2)cc1Cl | > 5 |  |  |  |  | > 5 | 240 |  |  |  | 453 | 1.6 |  | > 0.096 | > 5 | 77 | IC50 (Cytochrome P450 2D6 [16]): > 30 µM; IC50 (Cytochrome P450 3A4 [17]): > 30 µM; IC50 (Cytochrome P450 1A2 [18]): > 30 µM; IC50 (Cytochrome P450 2C9 [20]): > 30 µM
3 | COc1ccc(C(=O)NCc2cccc(C(=O)NCCc3ccncc3)c2)cc1OC |  | > 30 | 16 | > 30 | 2.3 |  |  | 4 | > 30 | 21 | 291 | 1.9 | 10 | 0.063 (≈ 150 µM) |  | 5 | efflux ratio (in vitro): 58; solubility [21]: > 0.1 mg/mL; IC50 [22]: 4.3 µM
